{
  "source": "patent US6509377B1",
  "about": "“Use of a 2-hydroxy-4-trifluoromethylbenzoic acid derivatives as inhibitors of the activation of the nuclear transcription factor NF-κB” (J. Uriach & Cia, S.A., priority 1999, dated 2003)",
  "key": {"[1]": {"system": "MCP-1", "test": "MCP-1 expression induced by immune complexes in THP-1 cells (ELISA)", "type": "cell-based, human", "details": "100 μg/ml A-IgG", "method": "Human monocytic THP-1 cells (3×10^6 cells/well) were cultured in plastic dishes in RPMI 1640 culture medium supplemented with penicillin (100 U/ml), streptomycin (100 μg/ml), gentamycin (50 μg/ml), glutamine (2 mM) and 2% heat-inactivated fetal calf serum. Cells were cultured in the presence of HTB (2 and 4 mM) or vehicle and were activated with 100 μg/ml immune complex aggregates (A-IgG). The production of soluble MCP-1 was determined by ELISA using a commercially available kit (R&D Systems Inc.; Minneapolis, Minn.). The detection limit of the system was 5 pg/ml."}, "[2]": {"test": "Cell viability of Jurkat cells (EZ4U)", "type": "cell-based", "details": "human, Jurkat cells (acute T cell leukemia), read-out: Percentage of cell viability", "method": "(§1) Several cell lines obtained from the American Type Culture Collection (ATCC) were cultured at 37° C. and under a 5% CO2 atmosphere. Each cell line was grown in an appropriate culture medium and within the exponential phase (Table I).\n(§2) For the cell viability studies 24-well plates were used, where 0.5×10^6 cells/ml (for 24-hour studies), 0.25×10^6 cells/ml (for 48-hour studies) or 0.125×10^6 cells/ml (for 72-hour studies) were incubated. Next, different concentrations of HTB (1-3 mM) were added and cells were incubated for different time periods (37° C., 5% CO2). After incubation, the supernatant from each well was extracted, and cells were washed with culture medium without fetal calf serum. Then, the supernatant was extracted and 200 μl culture medium without fetal calf serum were added to each well. In addition, 20 μl substrate were added to determine cell viability. This method is based on the ability of viable cells to transform the colourless substrate into a coloured substance that is excreted to the supernatant (EZ4U, Biomedica Gmbh.). After incubating cells for 1 hour at 37° C. and 5% CO2, 200 μl supernatant were collected and the absorbance was measured at 450 nm.\n(§3) The absorbance was also determined at 620 nm as a measure of the existing non-specific value."}, "[3]": {"test": "Cell viability of 1321N1 cells (EZ4U)", "type": "cell-based", "details": "human, 1321N1 cells (astrocytoma), read-out: Percentage of cell viability", "method": "as §1, §2, §3"}, "[4]": {"test": "Cell viability of COLO 205 cells (EZ4U)", "type": "cell-based", "details": "human, COLO 205 cells (colon adenocarcinoma), read-out: Percentage of cell viability", "method": "as §1, §2, §3"}, "[5]": {"system": "COX-2", "test": "COX-2 expression in rat inflammatory exudate cells (carrageenan air pouch)", "type": "in vivo", "details": "oral 3-30 mg/kg, 6 h", "method": "Lewis rats (175-200 g) were used in this study. Rats were randomly distributed in groups of 5 animals. An, air pouch was produced by subcutaneous injection of 20 ml of sterile air into the intrascapular area of animals in each group. Every two days, 10 ml of air were injected again into the cavity to keep the space open. Seven days after the first injection of air, 2 ml of a 1% carrageenan solution was injected into the air pouch in all groups to produce an inflammatory reaction. Test compound was administered orally 30 min before carrageenan administration. The animals were killed 6 h later and the volume of exudate was measured. The type and number of cells present were determined using standard Wright-Giemsa staining and a Coulter Counter cell counter, respectively. The exudate was centrifuged at 400 g at 4° C. for 7 min and PGE2 concentration was determined by enzyme-immunoassay (Amershan-Biotrak RPN222). The cell pellet was resuspended in 2 ml cold 0.85% NaCl. To eliminate red cell contamination, cells were subjected to a selective cellular lysis by the addition of 6 ml cold water for 20 seconds. The isotonicity of the cellular suspension was restored by the addition of 2 ml 3.5% NaCl. […]"}},
  "data": [
    {"smiles": "O=C(O)c1ccc(C(F)(F)F)cc1O", "note": "[HTB, 2-hydroxy-4-trifluoromethylbenzoic acid]", "values": [
      {"measurement": "inhibition of MCP-1 expression induced by immune complexes", "setting": "[1]; 2 mM", "value": "complete inhibition"},
      {"measurement": "inhibition of MCP-1 expression induced by immune complexes", "setting": "[1]; 4 mM", "value": "complete inhibition"},
      {"measurement": "viability at 0 h, 1 mM", "setting": "[2]; 1 mM HTB, 0 hours", "value": 100, "unit": "%"},
      {"measurement": "viability at 2 h, 1 mM", "setting": "[2]; 1 mM HTB, 2 hours", "value": 100, "unit": "%"},
      {"measurement": "viability at 5 h, 1 mM", "setting": "[2]; 1 mM HTB, 5 hours", "value": 76.8, "unit": "%"},
      {"measurement": "viability at 24 h, 1 mM", "setting": "[2]; 1 mM HTB, 24 hours", "value": 11.3, "unit": "%"},
      {"measurement": "viability at 48 h, 1 mM", "setting": "[2]; 1 mM HTB, 48 hours", "value": 3.6, "unit": "%"},
      {"measurement": "viability at 72 h, 1 mM", "setting": "[2]; 1 mM HTB, 72 hours", "value": 1.6, "unit": "%"},
      {"measurement": "viability at 0 h, 3 mM", "setting": "[2]; 3 mM HTB, 0 hours", "value": 100, "unit": "%"},
      {"measurement": "viability at 2 h, 3 mM", "setting": "[2]; 3 mM HTB, 2 hours", "value": 100, "unit": "%"},
      {"measurement": "viability at 5 h, 3 mM", "setting": "[2]; 3 mM HTB, 5 hours", "value": 62.6, "unit": "%"},
      {"measurement": "viability at 24 h, 3 mM", "setting": "[2]; 3 mM HTB, 24 hours", "value": 6.2, "unit": "%"},
      {"measurement": "viability at 48 h, 3 mM", "setting": "[2]; 3 mM HTB, 48 hours", "value": 5.4, "unit": "%"},
      {"measurement": "viability at 0 h, 1 mM", "setting": "[3]; 1 mM HTB, 0 hours", "value": 100, "unit": "%"},
      {"measurement": "viability at 2 h, 1 mM", "setting": "[3]; 1 mM HTB, 2 hours", "value": 99.7, "unit": "%"},
      {"measurement": "viability at 5 h, 1 mM", "setting": "[3]; 1 mM HTB, 5 hours", "value": 94.2, "unit": "%"},
      {"measurement": "viability at 24 h, 1 mM", "setting": "[3]; 1 mM HTB, 24 hours", "value": 87.5, "unit": "%"},
      {"measurement": "viability at 0 h, 3 mM", "setting": "[3]; 3 mM HTB, 0 hours", "value": 100, "unit": "%"},
      {"measurement": "viability at 2 h, 3 mM", "setting": "[3]; 3 mM HTB, 2 hours", "value": 85.3, "unit": "%"},
      {"measurement": "viability at 5 h, 3 mM", "setting": "[3]; 3 mM HTB, 5 hours", "value": 67.2, "unit": "%"},
      {"measurement": "viability at 24 h, 3 mM", "setting": "[3]; 3 mM HTB, 24 hours", "value": 62.2, "unit": "%"},
      {"measurement": "viability at 48 h, 3 mM", "setting": "[3]; 3 mM HTB, 48 hours", "value": 17.8, "unit": "%"},
      {"measurement": "viability at 0 h, 1 mM", "setting": "[4]; 1 mM HTB, 0 hours", "value": 100, "unit": "%"},
      {"measurement": "viability at 2 h, 1 mM", "setting": "[4]; 1 mM HTB, 2 hours", "value": 100, "unit": "%"},
      {"measurement": "viability at 5 h, 1 mM", "setting": "[4]; 1 mM HTB, 5 hours", "value": 87.2, "unit": "%"},
      {"measurement": "viability at 24 h, 1 mM", "setting": "[4]; 1 mM HTB, 24 hours", "value": 64.8, "unit": "%"},
      {"measurement": "viability at 48 h, 1 mM", "setting": "[4]; 1 mM HTB, 48 hours", "value": 37.4, "unit": "%"},
      {"measurement": "viability at 72 h, 1 mM", "setting": "[4]; 1 mM HTB, 72 hours", "value": 7.6, "unit": "%"},
      {"measurement": "viability at 0 h, 3 mM", "setting": "[4]; 3 mM HTB, 0 hours", "value": 100, "unit": "%"},
      {"measurement": "viability at 2 h, 3 mM", "setting": "[4]; 3 mM HTB, 2 hours", "value": 94.5, "unit": "%"},
      {"measurement": "viability at 5 h, 3 mM", "setting": "[4]; 3 mM HTB, 5 hours", "value": 69.2, "unit": "%"},
      {"measurement": "viability at 24 h, 3 mM", "setting": "[4]; 3 mM HTB, 24 hours", "value": 39.6, "unit": "%"},
      {"measurement": "viability at 48 h, 3 mM", "setting": "[4]; 3 mM HTB, 48 hours", "value": 14.3, "unit": "%"}
    ]},
    {"smiles": "CC(=O)Oc1cc(C(F)(F)F)ccc1C(=O)O", "note": "[triflusal, 2-Acetyloxy-4-trifluoromethylbenzoic acid, reference compound]", "values": [
      {"measurement": "inhibition of COX-2 expression in the cells present in the exudate", "setting": "[5]", "value": "dose-dependently inhibits"}
    ]}
  ]
}
